A word on the Emax: it is the greatest response seen or fitted, relative to the assay's reference. The term Ki denotes the dissociation constant of the complex between target and ligand, obtained from inhibition or displacement. Usually EC50 stands for the concentration needed to bring the measured effect to its halfway point. By pKa is commonly meant the negative logarithm of the acid dissociation constant. As a reminder, the half-life is the time in which the quantity being followed falls by half.

Activity calls are given as the source filed them. The calls are words filed in the database; no cut-off is given here.

The values below come from ChEMBL document CHEMBL2069212, “Identification and in vivo and in vitro characterization of long acting and melanocortin 4 receptor (MC4-R) selective α-melanocyte-stimulating hormone (α-MSH) analogues” (J Med Chem, 2012).

The test system of data set [1] is Rattus norvegicus. The data set can be described thus: Antiobesity activity in Sprague-Dawley rat assessed as reduction of food intake at 3 mg/kg, sc qd measured up to 7 hrs relative to control. The class given is functional. The arrangement: scale not given: the % may be the effect or the level left. Conditions: route subcutaneous.
Data set [2] relates to Rattus norvegicus. As to the kind of experiment: Antiobesity activity in Sprague-Dawley rat assessed as reduction of food intake at 3 mg/kg, sc qd measured after 7 to 24 hrs relative to control. Also noted: scale not given: the % may be the effect or the level left. The following applies: route subcutaneous. The format is functional.
Data set [3] concerns Rattus norvegicus. As to the kind of experiment: Antiobesity activity in Sprague-Dawley rat assessed as reduction of food intake at 3 mg/kg, sc qd measured after 24 to 48 hrs relative to control. Conditions: route subcutaneous. The format is functional.
In data set [4] the target is T1, Melanocortin receptor 4 (Homo sapiens, UniProt P32245). The data set can be described thus: Agonist activity at human recombinant MC4 receptor expressed in BHK570 cells assessed as induction of […] accumulation relative to alpha-MSH in presence of 0.1% human serum albumin. The class given is functional, cell-based.
T1 sequence (P32245 whole entry): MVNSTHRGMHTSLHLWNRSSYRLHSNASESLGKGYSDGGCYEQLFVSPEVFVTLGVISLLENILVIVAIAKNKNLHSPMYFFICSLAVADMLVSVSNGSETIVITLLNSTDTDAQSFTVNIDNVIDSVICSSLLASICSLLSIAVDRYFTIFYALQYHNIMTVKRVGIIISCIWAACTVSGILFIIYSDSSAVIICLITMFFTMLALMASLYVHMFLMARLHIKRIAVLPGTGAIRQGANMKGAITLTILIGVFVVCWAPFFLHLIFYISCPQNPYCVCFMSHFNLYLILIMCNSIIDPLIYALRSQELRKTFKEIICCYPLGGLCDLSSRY
A further data set addresses Melanocortin receptor 3 (Homo sapiens, UniProt P41968). The data set can be described thus: Displacement of [125I]-NAD-alpha-MSH from human recombinant MC3 receptor expressed in BHK570 cells after 1 hr in presence of ovalbumin. The class given is cell-based. (Loss of bound radioactivity is the signal in a displacement assay; it reports binding, not function.)
A further data set deals with Melanocortin receptor 5 (Homo sapiens, UniProt P33032). As to the kind of experiment: Displacement of [125I]-NAD-alpha-MSH from human recombinant MC3 receptor human MC5 expressed in BHK570 cells after 1 hr in presence of ovalbumin. The class given is cell-based.
Sequence of Melanocortin receptor 5 (P33032 whole entry): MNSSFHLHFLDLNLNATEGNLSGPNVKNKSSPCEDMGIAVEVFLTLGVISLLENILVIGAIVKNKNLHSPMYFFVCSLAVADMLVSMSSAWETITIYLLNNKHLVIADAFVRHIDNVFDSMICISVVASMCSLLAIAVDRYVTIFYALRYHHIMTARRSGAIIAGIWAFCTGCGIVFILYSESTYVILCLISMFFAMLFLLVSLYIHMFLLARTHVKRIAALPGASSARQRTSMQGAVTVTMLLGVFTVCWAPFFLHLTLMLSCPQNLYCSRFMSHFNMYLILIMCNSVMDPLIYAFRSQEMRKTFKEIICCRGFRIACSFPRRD
For data set [5], the target named is T1, Melanocortin receptor 4. As to the kind of experiment: Agonist activity at human recombinant MC4 receptor expressed in BHK570 cells assessed as induction of […] accumulation in presence of 0.1% human serum albumin. The class given is functional, cell-based.
Data set [6] in a line: Solubility of the compound at pH 3 to 8. The class given is physicochemical. The following applies: buffer.
Data set [7] has as its target Melanocyte-stimulating hormone receptor (Homo sapiens, UniProt Q01726). As to the kind of experiment: Displacement of [125I]-NAD-alpha-MSH from human recombinant MC1 receptor expressed in BHK570 cells after 90 mins in presence of ovalbumin. The format is cell-based.
In data set [8] the target is T1, Melanocortin receptor 4. The data set can be described thus: Displacement of [125I]-NAD-alpha-MSH from MC4 receptor after 2 hrs by gamma counting in presence of ovalbumin.
The nature of data set [9]: Dissociation constant, pKa of the compound. The class given is physicochemical.
Data set [10] concerns the target Melanocortin receptor 4 (Rattus norvegicus) (UniProt P70596). The data set can be described thus: Agonist activity at rat MC4 receptor. The format is functional.
Data set [11] is described as follows: Half life in human. The class given is ADME, organism-based. Conditions: in vivo.

Sequence of Melanocyte-stimulating hormone receptor (Q01726 whole entry): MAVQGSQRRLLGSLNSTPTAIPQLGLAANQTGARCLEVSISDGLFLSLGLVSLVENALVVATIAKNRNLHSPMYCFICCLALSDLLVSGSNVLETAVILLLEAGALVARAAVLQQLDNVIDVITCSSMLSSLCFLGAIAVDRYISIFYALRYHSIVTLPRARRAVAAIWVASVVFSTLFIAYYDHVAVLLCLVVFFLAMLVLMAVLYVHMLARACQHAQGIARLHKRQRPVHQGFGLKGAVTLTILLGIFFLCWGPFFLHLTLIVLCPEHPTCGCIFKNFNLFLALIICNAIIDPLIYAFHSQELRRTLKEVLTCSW
Sequence of Melanocortin receptor 3 (P41968 whole entry): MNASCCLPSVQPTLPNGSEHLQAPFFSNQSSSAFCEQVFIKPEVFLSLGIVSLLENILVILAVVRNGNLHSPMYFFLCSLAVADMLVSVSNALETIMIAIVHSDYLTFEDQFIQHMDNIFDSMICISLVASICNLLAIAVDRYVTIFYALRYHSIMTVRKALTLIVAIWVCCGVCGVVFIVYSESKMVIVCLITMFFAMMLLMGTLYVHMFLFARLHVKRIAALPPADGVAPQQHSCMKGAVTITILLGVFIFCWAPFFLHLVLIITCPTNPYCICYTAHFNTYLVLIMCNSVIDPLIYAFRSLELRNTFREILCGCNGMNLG
Sequence of Melanocortin receptor 4 (Rattus norvegicus) (P70596 whole entry): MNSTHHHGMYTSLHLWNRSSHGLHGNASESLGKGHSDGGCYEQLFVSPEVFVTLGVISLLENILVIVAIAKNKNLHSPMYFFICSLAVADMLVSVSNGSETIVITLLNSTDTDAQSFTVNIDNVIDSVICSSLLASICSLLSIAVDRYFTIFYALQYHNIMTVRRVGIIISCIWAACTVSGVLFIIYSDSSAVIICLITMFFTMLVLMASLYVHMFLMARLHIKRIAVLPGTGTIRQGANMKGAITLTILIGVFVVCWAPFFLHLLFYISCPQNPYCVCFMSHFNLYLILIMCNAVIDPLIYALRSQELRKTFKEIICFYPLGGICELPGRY

Consider `CCCC[C@H](NC(=O)[C@H](CCC(=O)O)NC(=O)[C@H](CCCNC(=N)N)NC(=O)[C@H](CCC(=O)O)NC(=O)[C@H](CCC(=O)O)NC(=O)CNC(=O)COCCOCCNC(=O)CCCCCCCCCCCCCCCc1nnn[nH]1)C(=O)N[C@H]1CCC(=O)NCCCC[C@@H](C(N)=O)NC(=O)[C@H](Cc2c[nH]c3ccccc23)NC(=O)[C@H](CCCNC(=N)N)NC(=O)[C@@H](Cc2ccccc2)NC(=O)[C@@H]2C[C@@H](O)CN2C1=O`, for which the Activity in the data set on Rattus norvegicus [1] amounted to 74%; in the data set on Rattus norvegicus [2], 90%. Besides, the “Food intake relative to control” value in the data set with Rattus norvegicus [3] is on record as 98%. For the same molecule, at Melanocortin receptor 4 [4], the Emax came to 77%.

As to `CCCC[C@H](NC(=O)[C@H](CNC(=O)CN(CC(=O)O)CC(=O)O)NC(=O)[C@H](Cc1cnc[nH]1)NC(=O)[C@H](CCC(N)=O)NC(=O)[C@H](CO)NC(=O)CNC(=O)COCCOCCNC(=O)CCCCCCCCCCCCCCCc1nnn[nH]1)C(=O)N[C@H]1CCC(=O)NCCCC[C@@H](C(N)=O)NC(=O)[C@H](Cc2c[nH]c3ccccc23)NC(=O)[C@H](CCCN=C(N)N)NC(=O)[C@@H](Cc2ccccc2)NC(=O)[C@@H]2C[C@@H](O)CN2C1=O`, the results for the Ki on Melanocortin receptor 3 and on Melanocortin receptor 5 were 71 nM and 13 nM, respectively. Also, the EC50 on Melanocortin receptor 4 [5] stood at 88 nM. Also, in data set [6], the solubility entry is “soluble”.

Regarding `CCCCCCCCCCCCCCCC(=O)NS(=O)(=O)CCCC(=O)NCC(=O)N[C@@H](CO)C(=O)N[C@@H](CCC(N)=O)C(=O)N[C@@H](Cc1cnc[nH]1)C(=O)N[C@@H](CO)C(=O)N[C@@H](CCCC)C(=O)N[C@H]1CCC(=O)NCCCC[C@@H](C(N)=O)NC(=O)[C@H](Cc2c[nH]c3ccccc23)NC(=O)[C@H](CCCNC(=N)N)NC(=O)[C@@H](Cc2ccccc2)NC(=O)[C@@H]2C[C@@H](O)CN2C1=O`, the inhibition constant Ki in data set [7] was 230 nM; on Melanocortin receptor 3, 8.2 nM; on Melanocortin receptor 5 it was 1.2 nM; at Melanocortin receptor 4 [8] it was 0.11 nM. Moreover, at Melanocortin receptor 4 [5], the EC50 amounted to 0.15 nM. Moreover, the Activity worked out at 40% with Rattus norvegicus [1] and 36% in the data set on Rattus norvegicus [2]. Moreover, the “Food intake relative to control” value with Rattus norvegicus [3] was found to be 58%. The pKa in [9] amounted to 2.

On to `CCCC[C@H](NC(=O)[C@H](CNC(=O)CN(CC(=O)O)CC(=O)O)NC(=O)[C@H](Cc1cnc[nH]1)NC(=O)[C@H](CCC(N)=O)NC(=O)[C@H](CO)NC(=O)CNC(=O)COCCOCCNC(=O)CCCCCCCCCCCCCCCc1nnn[nH]1)C(=O)N[C@H]1CCC(=O)NCCCC[C@@H](C(N)=O)NC(=O)[C@H](Cc2c[nH]c3ccccc23)NC(=O)[C@H](CCCNC(=N)N)NC(=O)[C@@H](Cc2ccccc2)NC(=O)[C@@H]2C[C@@H](O)CN2C1=O`, for which the Activity in the data set with Rattus norvegicus [1] is reported as 53%; with Rattus norvegicus [2], 39%. For the same molecule, the “Food intake relative to control” value in the data set with Rattus norvegicus [3] is 66%. Moreover, on Melanocortin receptor 4 [4], the Emax stood at 85%. Also, in data set [10], the outcome was Active.

Take `CCCC[C@H](NC(C)=O)C(=O)N[C@H]1CC(=O)NCCCC[C@@H](C(=O)O)NC(=O)[C@H](Cc2c[nH]c3ccccc23)NC(=O)[C@H](CCCNC(=N)N)NC(=O)[C@@H](Cc2ccccc2)NC(=O)[C@H](Cc2c[nH]cn2)NC1=O` [BREMELANOTIDE]: the Ki in data set [7] is 6.4 nM. Also, the Activity is given as 23% in the data set with Rattus norvegicus [1] and 91% in the data set on Rattus norvegicus [2]. In addition, in the data set on Rattus norvegicus [3], the “Food intake relative to control” value is reported as 100%. This molecule also showed a half-life in [11] of 2 h.
